Like-named read-outs stand apart in the source and are kept apart here.
Legend:
T. b. rhodesiense = T. b. rhodesiense growth inhibition (University of Antwerp); type: cell-based, Trypanosoma brucei rhodesiense; settings: mean of 2 to 5 determinations, read-out: IC50 T. b. rhod
[1] = tested on: human lung fibroblasts (MRC-5 cells); test: Cytotoxicity toward MRC-5 cells (University of Antwerp); type: cell-based
Trypanosoma cruzi = test: T. cruzi growth inhibition (University of Antwerp); type: cell-based; settings: mean of 2 to 5 determinations
Leishmania infantum = test: L. infantum growth inhibition (University of Antwerp); type: cell-based; settings: mean of 2 to 5 determinations
T. b. brucei 427 = test: T. b. brucei growth inhibition (University of Antwerp); type: cell-based, Trypanosoma brucei brucei; settings: for IC50: T. b. brucei 427, mean of 2 to 5 determinations, read-out: IC50 T. b. bruc
T. b. brucei (EATRO 110) = test: Acute (stage 1) HAT infection mouse model; type: in vivo, T. b. brucei; female Swiss Webster mice; settings: 2 mg/kg i.p. once daily for 4 days
Description: Therefore, 24 was examined in a stage 1 HAT mouse model.[14] Briefly, dosing was orally once daily for four days, starting 24 h postinfection, and parasitemia was assessed weekly via tail vein blood smears (see the Supporting Information). Excellent activity was observed (Table 4), with 24 providing complete cures (i.e. parasite free blood smears after >30 days) to all mice at doses as low as 5 mg/kg, similar to the control drug pentamidine (given i.p. at 2 mg/kg), whereas the vehicle only mice died on day 7. […] Here, oral dosing of 24 (at 12.5 to 50 mg/kg once daily for seven days from day 21 postinfection) led to significant increases in survival times in comparison to untreated controls (66–70 days vs 31 days; Table 5), although cure rates were inadequate (0–20%). […]
Mouse Model f or Acu te HAT Inf ection. Compound 24 was tested for in vivo effi cac y against acute HAT infection caused b y T. b. brucei (EATRO 110 strain) at the Haskins Laboratories, Pace Universit y. […] Infected animals or th ose showing si gns of infectionwer e euthanized.Untreated infected contr ol animals died after 5-7 days; mice remaining parasite free for more than 30 da ys beyond the end of the tr eatment period w er e con sidered cur ed. […]

[2] = Trypanosoma brucei, RHODESIENSE
[3] = Homo sapiens, MRC5, cytotoxicity toward human lung fibroblasts
[4] = cytotoxicity toward human lung fibroblasts

SMILES: O=[N+]([O-])c1cn2c(n1)SCC(Oc1ccc(OC(F)(F)F)cc1)C2 (stereo not shown) [Compound 28]
- IC50 (T. b. rhodesiense; [2]): 59 µM
- IC50 [1, 3]: 51 µM
- IC50 (Trypanosoma cruzi; Trypanosoma cruzi): 2.2 µM
- IC50 (Leishmania infantum; Leishmania infantum): 7 µM
- IC50 (T. b. brucei 427; Trypanosoma brucei): 40 µM

SMILES: O=[N+]([O-])c1cn2c(n1)SCC(Oc1ccc(C(F)(F)F)cn1)C2 (stereo not shown) [Compound 29]
- IC50 (T. b. rhodesiense; [2]): > 64 µM
- IC50 [1, 3]: > 64 µM
- IC50 (Trypanosoma cruzi; Trypanosoma cruzi): 5.3 µM
- IC50 (Leishmania infantum; Leishmania infantum): 10 µM
- IC50 (T. b. brucei 427; Trypanosoma brucei): > 64 µM

SMILES: O=[N+]([O-])c1cn2c(n1)SCC(OCc1ccc(OC(F)(F)F)cc1)C2 (stereo not shown) [Compound 30]
- IC50 (T. b. rhodesiense; [2]): 36 µM
- IC50 [1, 3]: > 64 µM
- IC50 (Trypanosoma cruzi; Trypanosoma cruzi): 1.1 µM
- IC50 (Leishmania infantum; Leishmania infantum): 55 µM
- IC50 (T. b. brucei 427; Trypanosoma brucei): 44 µM

SMILES: O=[N+]([O-])c1cn2c(n1)SCC(OCc1ccc(OCc3ccccc3)cc1)C2 (stereo not shown) [Compound 31]
- IC50 (T. b. rhodesiense; [2]): 1.2 µM
- IC50 [1, 3]: > 64 µM
- IC50 (Trypanosoma cruzi; Trypanosoma cruzi): 0.49 µM
- IC50 (Leishmania infantum; Leishmania infantum): 45 µM
- IC50 (T. b. brucei 427; Trypanosoma brucei): 1.4 µM

SMILES: O=[N+]([O-])c1cn2c(n1)SCC(OCc1ccc(-c3ccc(OC(F)(F)F)cc3)cn1)C2 (stereo not shown) [Compound 32]
- IC50 (T. b. rhodesiense; [2]): 2.1 µM
- IC50 [1, 3]: 21 µM
- IC50 (Trypanosoma cruzi; Trypanosoma cruzi): 1.4 µM
- IC50 (Leishmania infantum; Leishmania infantum): 7.5 µM
- IC50 (T. b. brucei 427; Trypanosoma brucei): 4.3 µM

SMILES: O=[N+]([O-])c1cn2c(n1)[S+]([O-])CC(Oc1ccc(OC(F)(F)F)cc1)C2 (stereo not shown) [Compound 33]
- IC50 (T. b. rhodesiense): 0.98 µM
- IC50 [1, 4]: 23 µM
- IC50 (Trypanosoma cruzi): 2.1 µM
- IC50 (Leishmania infantum): 7 µM
- potency relative to 12 against T. b. brucei (fold less potent) (T. b. brucei 427): 4- to 6 fold
- IC50 (T. b. brucei 427): 1.6 µM

SMILES: O=[N+]([O-])c1cn2c(n1)[S+]([O-])CC(Oc1ccc(C(F)(F)F)cn1)C2 (stereo not shown) [Compound 34]
- IC50 (T. b. rhodesiense): 0.51 µM
- IC50 [1, 4]: > 64 µM
- IC50 (Trypanosoma cruzi): 4.1 µM
- IC50 (Leishmania infantum): 13 µM
- potency relative to 12 against T. b. brucei (fold less potent) (T. b. brucei 427): 4- to 6 fold
- IC50 (T. b. brucei 427): 1.2 µM

SMILES: O=[N+]([O-])c1cn2c(n1)[S+]([O-])CC(Oc1ccc(OC(F)(F)F)cc1)C2 (stereo not shown) [Compound 36]
- IC50 (T. b. rhodesiense): 27 µM
- IC50 [1, 4]: > 64 µM
- IC50 (Trypanosoma cruzi): 7.7 µM
- IC50 (Leishmania infantum): > 64 µM
- IC50 (T. b. brucei 427): 55 µM

SMILES: O=[N+]([O-])c1cn2c(n1)[S+]([O-])CC(Oc1ccc(C(F)(F)F)cn1)C2 (stereo not shown) [Compound 37]
- IC50 (T. b. rhodesiense): 9.9 µM
- IC50 [1, 4]: 30 µM
- IC50 (Trypanosoma cruzi): 12 µM
- IC50 (Leishmania infantum): 41 µM
- IC50 (T. b. brucei 427): 17 µM

SMILES: O=[N+]([O-])c1cn2c(n1)[S+]([O-])CC(OCc1ccc(OC(F)(F)F)cc1)C2 (stereo not shown) [Compound 38]
- IC50 (T. b. rhodesiense): 5.1 µM
- IC50 [1, 4]: > 64 µM
- IC50 (Trypanosoma cruzi): 9.1 µM
- IC50 (Leishmania infantum): > 64 µM
- IC50 (T. b. brucei 427): 5.6 µM

SMILES: O=[N+]([O-])c1cn2c(n1)[S+]([O-])CC(OCc1ccc(-c3ccc(OC(F)(F)F)cc3)cn1)C2 (stereo not shown) [Compound 39, 2-Nitro-6-({5-[4-(trifluoromethoxy)phenyl]pyridin-2-yl}methoxy)-6,7-dihydro-5H-imidazo[2,1-b][1,3]thiazine 8-oxide]
- IC50 (T. b. rhodesiense): 0.1 µM
- IC50 [1, 4]: 54 µM
- IC50 (Trypanosoma cruzi): 0.14 µM
- IC50 (Leishmania infantum): 2 µM
- IC50 (T. b. brucei 427): 0.075 µM

SMILES: O=[N+]([O-])c1cn2c(n1)S(=O)(=O)CC(Oc1ccc(OC(F)(F)F)cc1)C2 (stereo not shown) [Compound 40]
- IC50 (T. b. rhodesiense; [2]): 13 µM
- IC50 [1, 3]: > 64 µM
- IC50 (Trypanosoma cruzi; Trypanosoma cruzi): 3.5 µM
- IC50 (Leishmania infantum; Leishmania infantum): 32 µM
- IC50 (T. b. brucei 427; Trypanosoma brucei): 15 µM

SMILES: O=[N+]([O-])c1cn2c(n1)S(=O)(=O)CC(Oc1ccc(C(F)(F)F)cn1)C2 (stereo not shown) [Compound 41]
- IC50 (T. b. rhodesiense; [2]): 11 µM
- IC50 [1, 3]: 46 µM
- IC50 (Trypanosoma cruzi; Trypanosoma cruzi): 2.6 µM
- IC50 (Leishmania infantum; Leishmania infantum): 30 µM
- IC50 (T. b. brucei 427; Trypanosoma brucei): 19 µM

SMILES: N=C(N)c1ccc(OCCCCCOc2ccc(C(=N)N)cc2)cc1 [Pentamidine, pentamidine, reference compound]
- Cured (T. b. brucei (EATRO 110)): 100%
- Cured/Total (T. b. brucei (EATRO 110)): 3/3
- Mean survival (T. b. brucei (EATRO 110)): >30 days
